Experimental data taken from ChEMBL document CHEMBL1201862, “PubChem BioAssay data set” (2004).
Activity calls are given as the source filed them.

Assays:
[1] = target: DNA damage-inducible transcript 3 protein (Mus musculus, UniProt P35639); assay type: functional, Cricetulus griseus
X-box-binding protein 1 = X-box-binding protein 1 (Homo sapiens, UniProt P17861); assay type: functional, Cricetulus griseus;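 further: confirmatory dose-response counter-screen serving a CHOP assay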
Protein skinhead-1 = target: T1, Protein skinhead-1 (Caenorhabditis elegans, UniProt P34707); assay type: functional
T1 sequence (P34707 whole entry): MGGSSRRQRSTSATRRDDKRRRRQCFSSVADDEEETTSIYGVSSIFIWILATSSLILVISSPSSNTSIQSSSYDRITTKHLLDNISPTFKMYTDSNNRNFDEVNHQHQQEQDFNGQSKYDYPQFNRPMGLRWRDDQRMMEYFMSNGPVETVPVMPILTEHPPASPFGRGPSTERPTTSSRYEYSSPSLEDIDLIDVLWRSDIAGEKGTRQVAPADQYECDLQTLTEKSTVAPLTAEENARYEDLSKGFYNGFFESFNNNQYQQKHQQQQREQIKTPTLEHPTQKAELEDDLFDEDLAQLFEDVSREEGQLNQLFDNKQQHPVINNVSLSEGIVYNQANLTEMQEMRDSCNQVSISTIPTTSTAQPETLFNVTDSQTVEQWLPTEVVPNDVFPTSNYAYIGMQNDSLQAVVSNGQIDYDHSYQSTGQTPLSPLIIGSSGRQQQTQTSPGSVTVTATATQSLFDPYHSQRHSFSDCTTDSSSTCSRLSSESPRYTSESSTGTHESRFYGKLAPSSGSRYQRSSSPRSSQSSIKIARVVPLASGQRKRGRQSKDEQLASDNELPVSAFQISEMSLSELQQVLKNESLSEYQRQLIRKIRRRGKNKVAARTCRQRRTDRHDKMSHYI

[2] = target: T2, Aryl hydrocarbon receptor (Homo sapiens, UniProt P35869); assay: Luminescence-based cell-based high throughput dose response assay for activators of the Aryl Hydrocarbon Receptor (AHR). [Related pubchem assays: 2796 (Primary screen (AHR activators in singlicate)), 2845 (Confirmation screen (AHR activators in triplicate)), 434939 (Counterscreen (PXR activators in triplicate)), 2804 (Summary (AHR activators))]; assay type: ADME
T2 sequence (P35869 whole entry): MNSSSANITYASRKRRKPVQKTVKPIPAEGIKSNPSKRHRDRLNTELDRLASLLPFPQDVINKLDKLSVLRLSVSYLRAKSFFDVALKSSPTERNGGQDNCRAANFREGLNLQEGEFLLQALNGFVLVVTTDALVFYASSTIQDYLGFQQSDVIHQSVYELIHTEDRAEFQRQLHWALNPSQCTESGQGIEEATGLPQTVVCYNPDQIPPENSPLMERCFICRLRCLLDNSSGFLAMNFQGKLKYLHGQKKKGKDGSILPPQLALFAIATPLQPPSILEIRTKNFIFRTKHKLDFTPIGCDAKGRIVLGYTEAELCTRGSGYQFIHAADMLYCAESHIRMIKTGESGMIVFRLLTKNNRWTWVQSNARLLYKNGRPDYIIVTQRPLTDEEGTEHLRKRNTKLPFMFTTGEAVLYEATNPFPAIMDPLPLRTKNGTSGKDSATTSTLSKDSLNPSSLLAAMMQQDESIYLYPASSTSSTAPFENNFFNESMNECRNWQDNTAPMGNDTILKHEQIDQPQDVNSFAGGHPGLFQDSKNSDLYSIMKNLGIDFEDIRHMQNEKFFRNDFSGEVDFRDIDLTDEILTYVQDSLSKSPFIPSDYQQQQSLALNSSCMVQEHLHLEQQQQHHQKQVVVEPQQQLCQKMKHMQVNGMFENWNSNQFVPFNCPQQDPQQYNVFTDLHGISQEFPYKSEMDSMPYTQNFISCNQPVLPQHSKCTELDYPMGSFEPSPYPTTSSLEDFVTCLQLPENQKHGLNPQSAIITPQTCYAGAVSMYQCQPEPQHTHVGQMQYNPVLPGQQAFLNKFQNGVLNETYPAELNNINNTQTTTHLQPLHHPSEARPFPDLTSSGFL

[3] = target: T3, Oxysterols receptor LXR-beta (Homo sapiens, UniProt P55055); assay type: functional, cell-based;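 further: agonist activity at LXR measured by a cell-based luminescence readout across a dose range, run as a counterscreen for daf-12 agonists; HEK293 cells with Gal4-LXR fusion and GAL4-driven luciferase reporter; potency for activation of Gal4-LXR reporter so compounds are agonists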
T3 sequence (P55055 whole entry): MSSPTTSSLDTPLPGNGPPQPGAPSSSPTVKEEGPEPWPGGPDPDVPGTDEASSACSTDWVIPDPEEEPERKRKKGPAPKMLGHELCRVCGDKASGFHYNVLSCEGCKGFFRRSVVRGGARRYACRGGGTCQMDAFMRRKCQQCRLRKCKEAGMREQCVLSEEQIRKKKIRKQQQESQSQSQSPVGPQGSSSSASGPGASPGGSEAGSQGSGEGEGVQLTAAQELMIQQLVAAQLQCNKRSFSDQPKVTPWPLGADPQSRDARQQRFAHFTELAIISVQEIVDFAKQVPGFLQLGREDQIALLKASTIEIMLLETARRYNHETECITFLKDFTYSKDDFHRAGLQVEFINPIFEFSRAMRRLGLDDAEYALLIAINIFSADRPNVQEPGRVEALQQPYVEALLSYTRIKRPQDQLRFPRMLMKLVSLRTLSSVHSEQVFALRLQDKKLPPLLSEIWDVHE

[4] = HEp-2 cell cytotoxicity, dose response, cytotoxicity control for RSV inhibitor project, HTS (AID 2410); assay type: functional; details: human respiratory syncytial virus
Coagulation factor XII = target: T4, Coagulation factor XII (Homo sapiens, UniProt P00748); assay: FXIIa inhibitor potency, concentration-response, biochemical (AID 716); assay type: functional
T4 sequence (P00748 whole entry): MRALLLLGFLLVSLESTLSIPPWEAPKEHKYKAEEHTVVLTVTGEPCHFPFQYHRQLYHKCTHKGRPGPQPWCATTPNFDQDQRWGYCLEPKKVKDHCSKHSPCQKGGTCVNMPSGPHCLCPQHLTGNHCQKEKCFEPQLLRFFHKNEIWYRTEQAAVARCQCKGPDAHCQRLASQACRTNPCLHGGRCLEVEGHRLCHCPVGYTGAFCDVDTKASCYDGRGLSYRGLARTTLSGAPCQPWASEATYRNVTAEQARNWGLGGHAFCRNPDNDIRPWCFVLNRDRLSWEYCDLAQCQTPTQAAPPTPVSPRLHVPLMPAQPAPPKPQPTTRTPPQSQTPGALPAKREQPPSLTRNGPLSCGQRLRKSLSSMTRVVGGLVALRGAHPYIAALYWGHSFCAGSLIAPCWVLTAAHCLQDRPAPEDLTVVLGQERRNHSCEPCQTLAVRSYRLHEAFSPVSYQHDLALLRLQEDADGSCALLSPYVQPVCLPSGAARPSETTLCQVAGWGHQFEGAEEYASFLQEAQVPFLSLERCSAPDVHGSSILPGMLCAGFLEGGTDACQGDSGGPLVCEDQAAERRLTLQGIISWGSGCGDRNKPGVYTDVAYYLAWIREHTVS

[5] = growth suppression of PTEN-null colon cells, dose response, cell-based, HCT116 PTEN knockout (AID 1047); assay type: functional;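 further: HCT116 colon tumor cells with PTEN knocked out; cells exposed to compound for 60 hours before readout; potency for loss of cell viability measured by luminescence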
[6] = growth suppression of beta-catenin-knockout colon cells, dose response, cell-based, HCT116, human colon tumor (AID 1045); assay type: functional;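 further: HCT116 colon tumor cells with beta catenin knocked out; cells exposed to compound for 60 hours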
[7] = HepG2 cell cytotoxicity, dose response, cytotoxicity control for non-replicating M. tuberculosis project (AID 489018); assay type: functional; details: Mycobacterium tuberculosis
[8] = cytotoxicity in MIN6 insulinoma cells, dose response, cytotoxicity control, cell-based, mouse insulinoma (AID 2122); assay type: functional;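 further: confirmatory high-throughput counterscreen run to flag cytotoxic compounds; mouse MIN-6 beta cells carrying an insulin promoter eGFP reporter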
[9] = THP-1 cell cytotoxicity, dose response, cytotoxicity control for non-replicating M. tuberculosis project (AID 489025); assay type: functional
[10] = insulin promoter down-regulators in MIN6 cells, imaging, high-content screening, mouse beta cells (AID 1628); assay type: functional
cells = assay type: functional
[11] = Vero E6 cell cytotoxicity, dose response, cytotoxicity control for non-replicating M. tuberculosis project, secondary assay (AID 492998); assay type: functional, VeroE6; details: Vero C1008

DNA damage-inducible transcript 3 protein, sequence (P35639 whole entry): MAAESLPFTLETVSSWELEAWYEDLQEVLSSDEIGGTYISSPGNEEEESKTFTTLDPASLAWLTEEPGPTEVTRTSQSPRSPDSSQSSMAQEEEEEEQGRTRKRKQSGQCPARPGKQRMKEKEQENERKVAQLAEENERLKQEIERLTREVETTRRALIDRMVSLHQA
X-box-binding protein 1, sequence (P17861 whole entry): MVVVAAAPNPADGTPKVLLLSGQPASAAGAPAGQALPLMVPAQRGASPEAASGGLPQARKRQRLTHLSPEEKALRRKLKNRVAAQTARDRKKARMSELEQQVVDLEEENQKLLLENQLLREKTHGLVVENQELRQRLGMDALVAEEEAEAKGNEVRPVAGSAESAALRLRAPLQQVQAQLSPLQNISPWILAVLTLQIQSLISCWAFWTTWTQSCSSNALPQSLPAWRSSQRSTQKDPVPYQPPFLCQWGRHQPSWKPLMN

SMILES: Clc1ccc(Nc2nc(-c3cccs3)cs2)nc1
- Absolute IC50 (CHOP) [1]: 10 µM
- Absolute IC50 (XBP1) (X-box-binding protein 1): 10 µM
- IC50 (Protein skinhead-1): 13.6 µM (active)
- EC50 [2]: 1.58 µM (active)
- EC50 [3]: > 67.5 µM (inactive)
- CC50 [4]: 8.33 µM (active)

SMILES: CC(=O)Nc1nc(=O)c2ccccc2s1
- IC50 (Coagulation factor XII): > 50 µM (inactive)

SMILES: COc1cccc(CNCCc2c[nH]c3ccccc23)c1OCc1ccc(F)cc1
- EC50 [5]: 5.74 µM (active)
- EC50 [6]: 6.39 µM (active)
- CC50 [7]: 9.79 µM (active)
- IC50 [8]: 3.37 µM (active)
- CC50 [9]: 15.6 µM (active)
- IC50 [10]: 2.56 µM (active)
- IC50 (cells): 16.4 µM (active)
- CC50 [11]: 13.4 µM (active)
